Read-outs that look alike come from different tables or passages of the source.
Experiments:
[1] = system: rat; settings: for Body temperature: WIN 55,212-2 3 mg/kg alone
Protocol: The rectal temperature in the rat was determined by an electronic thermometer inserted at a 2 mm depth. The measurements were carried out on rats acclimated for one hour. […]
Each test was repeated on ten animals; the reported results are the average of the results obtained with the ten animals.

[2] = system: rat intestinal motility; test: Intestinal motility, Upper Gut Transit Test, compound alone; assay type: in vivo; settings: control 50%
Protocol: (§1) To evaluate the activity in vivo of the compounds (I) object of the present invention, functional tests were carried out directed to the evaluation of the effect of said compounds on the rat intestinal motility. It was indeed shown the involvement of the cannabinoidergic CB1 receptors in the intestinal motility regulation in rat (R. G. Pertwee et al; Br. J. Pharmacol.; 1996, 118, 2199-2205). In particular, the CB1 receptor agonists slacken the gastrointestinal motility; antagonist compounds of the same receptors have instead a prokinetic effect on the gastrointestinal transit (G. Colombo et al.; Eur. J. Pharmacol.; 1998, 344, 67-69; M. A. Casu et al.; Eur. J. Pharmacol.; 2003, 459, 97-105).
(§2) The evaluation of the constipating or prokinetic effect of the compounds was carried out by the Upper Gut Transit Test method on the basis of the procedure defined and ratified by Y. Nagakura et al.; Eur. J. Pharmacol.; 1996, 311, 67-72. The method, which allows to measure the motility of the stomach and of the first intestine tract (small or little intestine), requires: • the administration of the compound to be tested by i.p. route; • the administration of carmine red (marker not directly absorbable from the stomach) by intragastric route through a metal probe, after 20 minutes from the administration of the compound to be tested; • the rat sacrifice by cervical dislocation after a pre-fixed time (30 minutes) starting from the administration time; • the intestine explant from pylorus to the ileo-cecal valve; • the determination of the intestinal part crossed by the marker; • the data processing to determine the percentage of crossed part with respect to the total length of the small intestine.
With respect to the control (physiological solution or carrier wherein the compounds to be tested were solubilized or dispersed), the administration of CB1 agonist compounds implies an intestinal transit percentage reduction; an opposite effect is noticed in case of antagonist compounds. The latter are therefore capable to cancel the constipating effect of CB1 agonist compounds.
Each test was repeated on ten animals; the results reported in the Examples are the average of the results obtained with ten animals.

[3] = system: rat intestinal motility; test: Intestinal motility, Upper Gut Transit Test, antagonism of the constipating action of WIN 55,212-2; assay type: in vivo; settings: compound 0.1 mg/kg before WIN 55,212-2 0.5 mg/kg, WIN alone 25%
Protocol: as §1, §2
With respect to the control (physiological solution or carrier wherein the compounds to be tested were solubilized or dispersed), the administration of CB1 agonist compounds implies an intestinal transit percentage reduction; an opposite effect is noticed in case of antagonist compounds. The latter are therefore capable to cancel the constipating effect of CB1 agonist compounds. […]

[4] = system: rat; test: Hypothermia test in vivo, antagonism of the hypothermia induced by WIN 55,212-2
Protocol: The rectal temperature in the rat was determined by an electronic thermometer inserted at a 2 mm depth. The measurements were carried out on rats acclimated for one hour. The rectal temperature was determined before and after (from 30 to 120 minutes) the i.p. administration of the compound to be tested.

Q: `Cc1c(C(=O)c2cccc3ccccc23)c2cccc3c2n1[C@H](CN1CCOCC1)CO3` [WIN 55,212-2, reference compound] was tested. Which Body temperature ([1]; 0 min from administration) did it give?
A: 37.9 °C

Q: And the Body temperature ([1]; 15 min)?
A: 35.6 °C

Q: What about the Body temperature ([1]; 30 min) of the same compound?
A: 33.8 °C

Q: What about the Body temperature ([1]; 60 min) of the same compound?
A: 34.5 °C

Q: What about the Body temperature ([1]; 90 min) of the same compound?
A: 35.8 °C

Q: And the Body temperature ([1]; 120 min)?
A: 36.8 °C

Q: And the “intestinal portion run by the marker with respect to the total intestine length” value (“intestinal portion run by the marker” for short) ([2]; WIN 55,212-2 0.5 mg/kg alone)?
A: 25%

Q: How did the “intestinal portion run by the marker” value [3] turn out when “N-piperidino-5-(4-chlorophenyl)-1-(2,4-dichlorophenyl)-4-methylpyrazol-3-carboxyamide [SR141716A, reference compound]” was run?
A: 50%

Q: What about the “passage of the hemato-encephalic barrier” value ([1]; concluded from the hypothermia tests) of the same compound?
A: capable to pass the hemato-encephalic barrier

Q: And the “effect on body temperature (hypothermia) of the compound alone, in words” value ([1]; i.p., compound alone, up to 120 min)?
A: has not implied any variation of the body temperature

Q: What about the Body temperature ([4]; WIN 55,212-2 (3 mg/kg) + compound (0.1 mg/kg), 30 min) of the same compound?
A: 35.3 °C

Q: What about the Body temperature ([4]; WIN 55,212-2 (3 mg/kg) + compound (0.1 mg/kg), 60 min) of the same compound?
A: 36.9 °C

Q: And the Body temperature ([4]; WIN 55,212-2 (3 mg/kg) + compound (0.1 mg/kg), 90 min)?
A: 37.5 °C

Q: What about the Body temperature ([4]; WIN 55,212-2 (3 mg/kg) + compound (0.5 mg/kg), 30 min) of the same compound?
A: 37.0 °C

Q: And the Body temperature ([4]; WIN 55,212-2 (3 mg/kg) + compound (0.5 mg/kg), 60 min)?
A: 37.8 °C

Q: What about the Body temperature ([4]; WIN 55,212-2 (3 mg/kg) + compound (0.5 mg/kg), 90 min) of the same compound?
A: 37.9 °C

Q: What about the “antagonist activity towards the hypothermia induced by WIN 55,212-2, in words” value ([4]; compound i.p. 30 min before WIN 55,212-2 (3 mg/kg)) of the same compound?
A: able to antagonize the effect of WIN 55,212-2

Q: And the “intestinal portion run by the marker” value ([2]; compound 2.5 mg/kg i.p.)?
A: 75%
